Data on 4 compounds can be found in ChEMBL document CHEMBL3351647, “Organochalcogen compounds from glycerol: synthesis of new antioxidants” (Bioorg Med Chem, 2014).

Molecules are shown by their SMILES.

Type in all cases: physicochemical
Series [1] is described as follows: Antioxidant activity assessed as ABTS radical scavenging activity at 1 uM by spectrophotometry relative to control.
Series [2] in a line: Antioxidant activity assessed as DPPH radical scavenging activity by spectrophotometry relative to control.
Series [3] in a line: Antioxidant activity assessed as ABTS radical scavenging activity at 100 uM by spectrophotometry relative to control.
A short description of series [4]: Antioxidant activity assessed as DPPH radical scavenging activity at 100 uM by spectrophotometry relative to control. A general note: Loss of DPPH colour is used to gauge radical scavenging.
Series [5] in a line: Antioxidant activity assessed as ABTS radical scavenging activity at 5 uM by spectrophotometry relative to control.
A short description of series [6]: Antioxidant activity assessed as […] scavenging activity by measuring NaNO2 at 500 uM by spectrophotometry.
The nature of series [7]: Antioxidant activity assessed as ABTS radical scavenging activity at 50 uM by spectrophotometry relative to control.
The nature of series [8]: Antioxidant activity assessed as ABTS radical scavenging activity at 10 uM by spectrophotometry relative to control.
Series [9] is described as follows: Antioxidant activity assessed as inhibition of Fe2+/ascorbic acid-induced linoleic acid peroxidation at 1 uM by spectrophotometry relative to control. Also noted: scale not given: the % may be the effect or the level left.
A short description of series [10]: Antioxidant activity assessed as inhibition of Fe2+/ascorbic acid-induced linoleic acid peroxidation at 50 uM by spectrophotometry relative to control. Also noted: scale not given: the % may be the effect or the level left.
The nature of series [11]: Antioxidant activity assessed as ABTS radical scavenging activity by spectrophotometry relative to control.
The nature of series [12]: Antioxidant activity assessed as […] scavenging activity by measuring NaNO2 at 100 uM by spectrophotometry.
Series [13] can be described thus: Antioxidant activity assessed as inhibition of Fe2+/ascorbic acid-induced linoleic acid peroxidation at 5 uM by spectrophotometry relative to control. Also noted: scale not given: the % may be the effect or the level left.
Series [14] in a line: Antioxidant activity assessed as ABTS radical scavenging activity at 25 uM by spectrophotometry relative to control.
Series [15] is described as follows: Antioxidant activity assessed as DPPH radical scavenging activity at 500 uM by spectrophotometry relative to control.
Series [16] in a line: Antioxidant activity assessed as hydroxyl radical scavenging activity.
Series [17] is described as follows: Antioxidant activity assessed as ferric ion reducing activity at 10 to 500 uM after 40 mins by spectrophotometry relative to control.
A short description of series [18]: Antioxidant activity assessed as DPPH radical scavenging activity at 50 uM by spectrophotometry relative to control.
Series [19] in a line: Antioxidant activity assessed as inhibition of Fe2+/ascorbic acid-induced linoleic acid peroxidation at 500 uM by spectrophotometry relative to control. More on the design: scale not given: the % may be the effect or the level left.
Series [20] can be described thus: Antioxidant activity assessed as inhibition of Fe2+/ascorbic acid-induced linoleic acid peroxidation by spectrophotometry relative to control.
Series [21] in a line: Antioxidant activity assessed as inhibition of Fe2+/ascorbic acid-induced linoleic acid peroxidation at 100 uM by spectrophotometry relative to control. More on the design: scale not given: the % may be the effect or the level left.
A short description of series [22]: Antioxidant activity assessed as […] scavenging activity by measuring NaNO2 at 10 uM by spectrophotometry.
Series [23] can be described thus: Antioxidant activity assessed as ABTS radical scavenging activity at 500 uM by spectrophotometry relative to control.
Series [24] is described as follows: Antioxidant activity assessed as superoxide dismutase-like activity.
Series [25] in a line: Antioxidant activity assessed as inhibition of Fe2+/ascorbic acid-induced linoleic acid peroxidation at 10 uM by spectrophotometry relative to control. More on the design: scale not given: the % may be the effect or the level left.
Series [26] is described as follows: Antioxidant activity assessed as […] scavenging activity by measuring NaNO2 at 50 uM by spectrophotometry.
The nature of series [27]: Antioxidant activity assessed as DPPH radical scavenging activity at 10 uM by spectrophotometry relative to control.

One may read the IC50 as the midpoint of a concentration-inhibition curve. Turning to `CC1(C)OCC(C[Te]c2ccccc2)O1` (stereo not given), the Activity in series [1] came out at 2.18%; in [3], 99.5%; in series [4], 22.55%; in series [5] it was 12.04%; in series [6], 44.49 µM; in series [7], 90.64%. Moreover, the Activity in [8] stood at 22.72%; in series [9], 79.46%; in series [10], 43.34%; in series [12] it was 54.93 µM; in series [13], 66.29%; in series [14], 53.41%. The Activity in series [15] is given as 77.86%; in series [16], “Not Active”; in series [17], “Active”; in [18] it was 11.08%; in series [19] it was 20.6%; in series [21], 31.66%. Besides, the Activity was 64.13 µM in series [22]; 99.9% in series [23]; “Not Active” in series [24]; 57.39% in series [25]; 55.95 µM in [26]; 3.57% in series [27]. Further, the IC50 in series [2] stood at 309 µM; in series [11] it was 24.5 µM; in series [20], 24.5 µM.
Consider `CC1(C)OCC(CO)O1` (stereo not given), for which the Activity in [3] was found to be 1.7%; in series [4], 0.98%; in series [6] it was 54.47 µM; in series [7] it was 0.85%; in series [8], 0%; in [9], 72.67%. Moreover, the Activity in [10] is 72.35%; in series [12], 52.22 µM; in series [13], 66.2%; in series [14] it was 0%; in [15] it was 0.98%; in series [16], “Not Active”. For the same compound, the Activity entry is “Not Active” in [17]; 0.98% in series [18]; 76.4% in series [19]; 72.48% in series [21]; 56.6 µM in [22]; 9.84% in series [23]. In addition, the Activity in [25] is 79.89%; in series [26], 55.45 µM; in series [27], 0.54%.
Regarding `CC1(C)OCC(C[Se]c2ccccc2)O1` (stereo not given), the Activity worked out at 1.15% in series [3]; 0.63% in series [4]; 49.65 µM in series [6]; 1.19% in [7]; 0% in series [8]; 88.37% in series [9]. The Activity in [10] was 89.97%; in series [12] it was 51.95 µM; in series [13], 94.34%; in series [14] it was 0%; in series [15] it was 1.3%; in series [16], “Not Active”. Besides, the Activity entry in [17] was “Not Active”; in series [18], 0.63%; in series [19] it was 81.22%; in series [21] it was 86.55%; in [22] it was 54.43 µM; in [23], 4.75%. Moreover, the results for the Activity in series [25], in [26] and in [27] were 86.97%, 52.5 µM and 0.98%, respectively.
As to `CC1(C)OCC(CSc2ccccc2)O1` (stereo not given), the Activity in series [3] turned out to be 0.36%; in series [4], 0.5%; in [6], 49.68 µM; in [7], 0.15%; in series [8] it was 0.47%; in series [9], 86.7%. Moreover, the Activity in series [10] is 76.51%; in [12], 50.48 µM; in series [13] it was 87.79%; in series [14], 0%; in [15], 1.65%; in [16], “Not Active”. The Activity entry in series [17] is “Not Active”; in [18] it was 1.07%; in series [19] it was 72.46%; in [21] it was 74.88%; in [22], 49.59 µM; in [23], 0.08%. Besides, the Activity in [25] stood at 76.51%; in series [26], 50.91 µM; in series [27], 0.01%.
